From paper PMC10914734 (Signal Transduction and Targeted Therapy, 2024)

What was measured:
Pharmacokinetics in mice = format: in vivo; settings: for MRT inf: read-out: MRTINF_obs; for AUC(0-inf): read-out: AUCINF_obs
Pharmacokinetics in rats = format: in vivo; settings: for AUC(0-t) / Cmax / Tmax / bioavailability / half-life / AUC(0-inf) / MRT inf / clearance: male, SD, rat, plasma; for AUC(0-inf): read-out: AUCINF_obs; for MRT inf: read-out: MRTINF_obs
Human CTSG = Human CTSG (Homo sapiens, UniProt P08311); assay: Protease panel, CTSG inhibition; format: biochemical; settings: at a concentration of 20 μM; read-out: Inhibition rate, Human CTSG
MERS-CoV PsV = assay: microbe, parasite or virus in culture; format: cell-based; settings: Middle East respiratory syndrome-related coronavirus, Huh-7, read-out: EC50, MERS-CoV PsV
SARS-CoV-2 M^pro = SARS-CoV-2 M^pro (Severe acute respiratory syndrome coronavirus 2, UniProt P0DTD1); assay: biochemical
[1] = test system: vesicular stomatitis virus G glycoprotein (VSV-G) mediated entry; format: cell-based
SARS-CoV-2 RdRp = SARS-CoV-2 RdRp (Severe acute respiratory syndrome coronavirus 2, UniProt P0DTD1); assay: biochemical
[2] = test system: Huh-7, Vero-E6, RD and 293T-ACE2-TMPRSS2 cell lines; assay: Cell Counting Kit-8 (CCK8) cytotoxicity assay; format: cell-based; settings: 293T-ACE2-TMPRSS2 cells
Method: Cell viability was performed in a 96-well plate with triplicate for each concentration. All compounds were diluted two times with nine gradients starting at 200, 250. or 500 micromoles in maintenance medium. After 48 h incubation, the supernatant was removed, and 10 μL WST-8 (2-(2-methoxy-4-nitrophenyl)-3-(4-nitrophenyl)-5-(2,4-disulfophenyl)-2H-tetrazolium sodium salt) in maintenance medium was added to the cells. After incubation at 37 °C for 2 h, the plates were measured at 450 nm using a spectrophotometer (BioTek), and cell viability was calculated. All compounds were diluted with maintenance medium containing 2%FBS of DMEM.

[3] = test system: SARS-CoV-2-S-mediated cell-cell fusion; assay: SARS-CoV-2-S-mediated cell-cell fusion assay; format: cell-based
[4] = test system: LPS-induced expression of proinflammatory cytokines (IL-1β, IL-6) and chemokines (CCL3, CXCL10) in Raw 264.7 mouse macrophages; assay: Anti-inflammatory assay in LPS-stimulated Raw 264.7 cells (RT-qPCR); format: cell-based; settings: LPS 200 ng/mL 6 h, dose-dependent
Method: Mouse macrophage Raw 264.7 cells were incubated with compounds 14a or 14b at different doses for 2 h. Then, the cells were stimulated with LPS (200 ng/mL) for 6 h, followed by RT-qPCR analysis.
RNA isolation, cDNA synthesis, and RT-qPCR. Total RNA was isolated from cells using RNA extraction reagent (Vazyme, R401-01). cDNA was synthesized using the HiScript IIQ RT SuperMix (Vazyme, R223-01), according to manufacturer’s instructions. RT-qPCR was performed using ChamQ SYBR qPCR Master Mix (Vazyme, Q331-02) in a CFX96TM Real-Time PCR Detection System (Bio-Rad, Shanghai, China). The profile of thermal cycling consisted of initial denaturation at 95 °C for 30 s, 40 cycles at 95 °C for 5 s and 60 °C for 30 s. All primer sequences used in this study are listed in Supplementary Table S5.

B.1.617.2 (Delta) = assay: microbe, parasite or virus in culture; format: cell-based; settings: Severe acute respiratory syndrome coronavirus 2, HEK-293T, read-out: EC50, SARS-CoV-2 B.1.617.2 (Delta)
HCoV-OC43 = assay: microbe, parasite or virus in culture; format: cell-based; settings: Betacoronavirus 1, OC43, RD, read-out: EC50, authentic HCoV-OC43
HCoV-229E = assay: microbe, parasite or virus in culture; format: cell-based; settings: Human coronavirus 229E, Huh-7, read-out: EC50, authentic HCoV-229E
[5] = CD-1, mouse, plasma, po, 14b, p.o. (20 mg/kg)
[6] = male, CD-1, mouse, plasma, ip, 14b, i.p. (20 mg/kg)
[7] = male, CD-1, mouse, plasma, iv, 14b, i.v. (10 mg/kg)
[8] = male, ICR, mouse, plasma, ip, 14a, i.p. (5 mg/kg)
[9] = male, ICR, mouse, plasma, iv, 14a, i.v. (5 mg/kg)
[10] = male, ICR, mouse, plasma, po, 14a, p.o. (10 mg/kg)

Human CTSG, sequence (P08311 21-255): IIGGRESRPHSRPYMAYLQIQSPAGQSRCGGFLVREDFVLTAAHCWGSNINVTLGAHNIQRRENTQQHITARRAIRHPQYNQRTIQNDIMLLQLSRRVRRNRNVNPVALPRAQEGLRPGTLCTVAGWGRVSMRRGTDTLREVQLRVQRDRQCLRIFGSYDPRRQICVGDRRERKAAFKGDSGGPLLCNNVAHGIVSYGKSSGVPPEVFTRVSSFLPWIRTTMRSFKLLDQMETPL

## O=C(NCc1ccccc1)C(=O)[C@H](C[C@@H]1CCCNC1=O)NC(=O)[C@H](CC1CCCCC1)NC(=O)c1cc2ccccc2o1 [14b, N-((S)-1-(((S)-4-(benzylamino)-3,4-dioxo-1-((S)-2-oxopiperidin-3-yl)butan-2-yl)amino)-3-cyclohexyl-1-oxopropan-2-yl)benzofuran-2-carboxamide]
Pharmacokinetics in mice; 14b, i.v. (10 mg/kg)
  Vss_obs: 6.419 ± 2.698 L/kg
Pharmacokinetics in mice; [5]
  AUC(0-t): 463 ± 225 ng·h/mL
  Cmax: 290 ± 189 ng/mL
  Tmax: 0.25 h
  bioavailability: 8%
  half-life: 1.32 ± 0.77 h
  MRT inf: 2.11 ± 0.87 h
Pharmacokinetics in mice; [6]
  AUC(0-t): 7300 ± 782 ng·h/mL
  Cmax: 3270 ± 374 ng/mL
  Tmax: 0.18 ± 0.12 h
  bioavailability: 128%
  half-life: 5.77 h
  AUC(0-inf): 7640 ng·h/mL
  MRT inf: 5.34 ± 1.81 h
Pharmacokinetics in mice; [7]
  AUC(0-t): 2900 ± 1020 ng·h/mL
  clearance: 62.5 ± 27.4 mL/min/kg
  half-life: 3.34 ± 2.38 h
  AUC(0-inf): 2980 ng·h/mL
  MRT inf: 1.88 ± 1.08 h
Pharmacokinetics in mice; male, CD-1, mouse, plasma, po, 14b, p.o. (20 mg/kg)
  AUC(0-inf): 488 ng·h/mL
Pharmacokinetics in rats; i.v. (5 mg/kg)
  Vss_obs: 2.28 ± 0.184 L/kg
Pharmacokinetics in rats; ip, i.p. (5 mg/kg)
  AUC(0-t): 9300 ± 994 ng·h/mL
  Cmax: 1630 ± 99 ng/mL
  Tmax: 0.25 h
  bioavailability: 249%
  half-life: 8.24 ± 1.72 h
  AUC(0-inf): 10600 ± 557 ng·h/mL
  MRT inf: 10.6 ± 1.8 h
Pharmacokinetics in rats; iv, i.v. (5 mg/kg)
  AUC(0-t): 4220 ± 189 ng·h/mL
  clearance: 19.6 ± 0.9 mL/min/kg
  half-life: 5.11 ± 0.1 h
  AUC(0-inf): 4250 ± 188 ng·h/mL
  MRT inf: 1.94 ± 0.12 h
Pharmacokinetics in rats; po, p.o. (10 mg/kg)
  AUC(0-t): 2620 ± 250 ng·h/mL
  Cmax: 982 ng/mL
  Tmax: 0.33 ± 0.14 h
  bioavailability: 32%
  half-life: 3.86 h
  AUC(0-inf): 2680 ng·h/mL
  MRT inf: 3.95 ± 1.27 h
Human CTSG
  inhibition: 4 ± 4%
MERS-CoV PsV
  EC50: 13.6 ± 3.05 nM
SARS-CoV-2 M^pro
  IC50: 990 nM
[1]
  Inhibitory activity on VSV-G mediated entry: no inhibitory activity
SARS-CoV-2 RdRp
  IC50: 3210 ± 250 nM
[2]
  Cytotoxicity: very low or no cytotoxicity
[3]
  Effect on SARS-CoV-2-S-mediated cell-cell fusion: no effect
[4]
  LPS-induced expression of proinflammatory cytokines (IL-1β, IL-6) and chemokines (CCL3, CXCL10): significantly inhibited
B.1.617.2 (Delta)
  EC50: 0.84 ± 0.13 nM
HCoV-OC43
  EC50: 1310 ± 320 nM
HCoV-229E
  EC50: 20.6 ± 8.19 nM

## O=C(NCc1ccccc1)C(=O)[C@H](C[C@@H]1CCCNC1=O)NC(=O)[C@H](Cc1ccc(F)cc1)NC(=O)c1cc2ccccc2o1 [14a, N-((S)-1-(((S)-4-(benzylamino)-3,4-dioxo-1-((S)-2-oxopiperidin-3-yl)butan-2-yl)amino)-3-(4-fluorophenyl)-1-oxopropan-2-yl)benzofuran-2-carboxamide]
Pharmacokinetics in mice; 14a, i.v. (5 mg/kg)
  Vss_obs: 9.5 L/kg
Pharmacokinetics in mice; [8]
  AUC(0-t): 1260 ng·h/mL
  Cmax: 1120 ng/mL
  Tmax: 0.25 h
  bioavailability: 101%
  half-life: 7.01 h
  AUC(0-inf): 1270 ng·h/mL
  MRT inf: 1.82 h
Pharmacokinetics in mice; male, ICR, mouse, plasma, ip, 14a, intraperitoneal (10 mg/kg) as printed in the text, read-out: area under the curve (AUC)
  AUC: 1270 ng·h/mL
Pharmacokinetics in mice; [9]
  AUC(0-t): 1220 ng·h/mL
  clearance: 66 mL/min/kg
  half-life: 18.5 h
  AUC(0-inf): 1260 ng·h/mL
  MRT inf: 2.4 h
Pharmacokinetics in mice; [10]
  AUC(0-t): 125 ng·h/mL
  Cmax: 124 ng/mL
  Tmax: 0.25 h
  bioavailability: 5%
  half-life: 1.09 h
  AUC(0-inf): 126 ng·h/mL
  MRT inf: 1.09 h
Pharmacokinetics in rats; i.v. (5 mg/kg)
  Vss_obs: 1.3 ± 0.15 L/kg
Pharmacokinetics in rats; ip, i.p. (5 mg/kg)
  AUC(0-t): 4760 ng·h/mL
  Cmax: 2080 ng/mL
  Tmax: 0.25 h
  bioavailability: 115%
  half-life: 4.14 h
  AUC(0-inf): 4760 ng·h/mL
  MRT inf: 1.9 h
Pharmacokinetics in rats; iv, i.v. (5 mg/kg)
  AUC(0-t): 4110 ± 756 ng·h/mL
  clearance: 20.6 ± 3.4 mL/min/kg
  half-life: 6 ± 0.75 h
  AUC(0-inf): 4130 ± 756 ng·h/mL
  MRT inf: 1.08 ± 0.07 h
Pharmacokinetics in rats; po, p.o. (10 mg/kg)
  AUC(0-t): 1050 ± 276 ng·h/mL
  Cmax: 416 ng/mL
  Tmax: 0.75 ± 0.84 h
  bioavailability: 13%
  half-life: 2.52 h
  AUC(0-inf): 1060 ng·h/mL
  MRT inf: 2.06 ± 0.49 h
Human CTSG
  inhibition: 20 ± 3%
MERS-CoV PsV
  EC50: 29.8 ± 5.72 nM
SARS-CoV-2 M^pro
  IC50: 12600 nM
[1]
  Inhibitory activity on VSV-G mediated entry: no inhibitory activity
SARS-CoV-2 RdRp
  IC50: 8020 ± 40 nM
[2]
  Cytotoxicity: very low or no cytotoxicity
[3]
  Effect on SARS-CoV-2-S-mediated cell-cell fusion: no effect
[4]
  LPS-induced expression of proinflammatory cytokines (IL-1β, IL-6) and chemokines (CCL3, CXCL10): significantly inhibited
B.1.617.2 (Delta)
  EC50: 0.8 ± 0.16 nM
HCoV-OC43
  EC50: 3380 ± 2070 nM
HCoV-229E
  EC50: 19 ± 4.17 nM
